pIC50: −log10 of the molar value. Read-outs that look alike come from different tables or passages of the source.
System: RPEMYC^H2B-GFP cells
Test: Phenotypic screening assay (mitotic arrest, polyploidy)
Type: cell-based
Conditions: 1 nM to 30 μM; for pIC50: read-out: Proliferative arrest (>50%)
Description: We have previously developed a mechanism-informed phenotypic screening assay to identify novel antimitotic agents. Equipped with a prior understanding of the versatile functions of the chromosomal passenger protein (CPP) complex in orchestrating karyokinesis and cytokinesis, the screening assay is to score for phenotypes typically seen when the CPP complex is disabled. Specifically, the parameters for a positive hit are a temporary elevation of mitotic index (MI) at 24 hours of drug treatment and an accumulation of polyploid cells at 48 hours of drug treatment, indicative of mitotic arrest and cytokinetic failure respectively. These parameters exclude compounds that elicit only a prolonged arrest of cells in mitosis, a phenotype typically provoked by spindle toxins. The screening procedure is briefly summarized here. RPEMYC^H2B-GFP cells engineered to express a Histone 2B-EGFP fusion protein were passaged as batches of 96-well plates, 18-24 hours before exposure to the chemical compounds of the present disclosure at concentrations from 1 nM to 30 μM. At 24, 48 or 72 hours after initiation of treatment, cells were analyzed for either an arrest in mitosis or a change in DNA content by GE IN-Cell Analyzer 2000. As set forth in Table 2 below, a value of greater than or equal to 1 nM and less than or equal to 1.0 μM is marked “A”; a value greater than 1.00 μM and less than or equal to 10.0 μM is marked “B”; a value greater than 10.0 μM and less than or equal to 30.0 μM is marked “C”; and a value greater than 30.0 μM is marked “D.”

[1] = read-out: Min. Effective conc. for Polyploidy (≥5%)

SMILES | minimal effective concentration [1] | minimal effective concentration (read-out: Mitotic Arrest (≥5%)) | pIC50 | Along with Cell Death | Min. Effective conc. for Polyploidy (≥5%) | Mitotic Arrest (≥5%) | Proliferative arrest (>50%)
NC(=O)c1ccc2nccc(Oc3cc(Cl)cc(-n4cccn4)c3)c2c1 [Compound 2, 4-(3-chloro-5-(1H-pyrazol-1-yl)phenoxy)quinoline-6-carboxamide] | > 30 µM | > 30 µM |  |  |  |  | 
COc1cc(Oc2ncnc3cc(OC)c(OC)cc23)cc(-n2ccnc2)c1 [Compound 79, 4-(3-(1H-Imidazol-1-yl)-5-methoxyphenoxy)-6,7-dimethoxyquinazoline] | 10 to 30 µM | 10 to 30 µM | 4.52 to 5.00 |  |  |  | 
COc1cc(Oc2cc(Cl)nc3ccc(Br)cc23)cc([N+](=O)[O-])c1 [Compound 97, 4-(3-methoxy-5-nitrophenoxy)-6-bromo-2-chloroquinoline] | > 30 µM | > 30 µM |  |  |  |  | 
COc1cc(Oc2ccnc3ccc(Br)cc23)cc([N+](=O)[O-])c1 [Compound 93, 4-(3-methoxy-5-nitrophenoxy)-6-bromoquinone] | 0.001 to 1 µM | 0.001 to 1 µM |  |  |  |  | 
COc1cc(OC)cc(Oc2ccnc3ccc(-c4ccco4)cc23)c1 [Compound 47, 4-(3,5-Dimethoxyphenoxy)-6-(furan-2-yl)quinoline] | 1 to 10 µM | 1 to 10 µM | 5.00 to 6.00 |  |  |  | 
COc1cc(NC(C)=O)cc(Oc2ccnc3ccc(C(F)(F)F)cc23)c1 [Compound 55, N-(3-Methoxy-5-((6-(trifluoromethyl)quinolin-4-yl)oxy)phenyl)acetamide] | 0.001 to 1 µM | 0.001 to 1 µM | 6.00 to 9.00 |  |  |  | 
CNC(=O)c1cc2c(Oc3cc(NC(C)=O)cc(OC)c3)ccnc2cc1OC [Compound 45, 4-(3-Acetamido-5-methoxyphenoxy)-7-methoxy-N-methylquinoline-6-carboxamide] | 1 to 10 µM | 1 to 10 µM | 5.00 to 6.00 |  |  |  | 
CCOc1cc(Oc2ccnc3cc(OC)c(C(N)=O)cc23)cc(-n2cccn2)c1 [Compound 59, 4-(3-ethoxy-5-(1H-pyrazol-1-yl)phenoxy)-7-methoxyquinoline-6-carboxamide] | 0.001 to 1 µM | 0.001 to 1 µM | 6.00 to 9.00 |  |  |  | 
[2H]c1cc(Oc2cc(OC)cc([N+](=O)[O-])c2)c2cc(Br)ccc2n1 [Compound 98] | 1 to 10 µM | 1 to 10 µM |  |  |  |  | 
COc1cc(Oc2ccnc3cc(OC)c(C(N)=O)cc23)cc(O[C@@H]2CCOC2)c1 [Compound 81, (R)-7-methoxy-4-(3-methoxy-5-((tetrahydrofuran-3-yl)oxy)phenoxy)quinoline-6-carboxamide] | 0.001 to 1 µM | 0.001 to 1 µM |  |  |  |  | 
COC(=O)c1cc(OC)cc(Oc2ncnc3cc(OC)c(OC)cc23)c1 [Example 24, methyl 3-((6,7-dimethoxyquinazolin-4-yl)oxy)-5-methoxybenzoate] |  |  |  | C (a value greater than 10.0 μM and less than or equal to 30.0 μM) | C (a value greater than 10.0 μM and less than or equal to 30.0 μM) | C (a value greater than 10.0 μM and less than or equal to 30.0 μM) | C (a value greater than 10.0 μM and less than or equal to 30.0 μM)
CNC(=O)c1cc(OC)cc(Oc2ccnc3ccccc23)c1 [Compound 10, 3-methoxy-N-methyl-5-(quinolin-4-yloxy)benzamide] | 1 to 10 µM | 0.001 to 1 µM | 5.00 to 6.00 |  |  |  | 
COc1cc(NC(C)=O)cc(Oc2ncnc3ccn(C)c23)c1 [Compound 56, N-(3-methoxy-5-((5-methyl-5H-pyrrolo[3,2-d]pyrimidin-4-yl)oxy)phenyl) acetamide] | 10 to 30 µM | 1 to 10 µM | 4.52 to 5.00 |  |  |  | 
COc1cc(Oc2ccnc3cc(OC)c(OC)cc23)cc(-c2ncccn2)c1 [Compound 63, 6,7-Dimethoxy-4-(3-methoxy-5-(pyrimidin-2-yl)phenoxy) quinoline] | 0.001 to 1 µM | 0.001 to 1 µM | 6.00 to 9.00 |  |  |  | 
COc1cc(Oc2ccnc3cc(OC)c(C(N)=O)cc23)cc(-c2cnn(C)c2)c1 [Compound 66, 7-Methoxy-4-(3-methoxy-5-(1-methyl-H-pyrazol-4-yl)phenoxy)quinoline-6-carboxamide] | 0.001 to 1 µM | 0.001 to 1 µM | 6.00 to 9.00 |  |  |  | 
CNC(=O)c1cc2c(Oc3cc(OC)cc(-n4cccn4)c3)ccnc2cc1OC [Compound 44, 7-Methoxy-4-(3-methoxy-5-(1H-pyrazol-1-yl)phenoxy)-N-methylquinoline-6-carboxamide] | 1 to 10 µM | 1 to 10 µM | 5.00 to 6.00 |  |  |  | 

SMILES | minimal effective concentration [1] | minimal effective concentration (read-out: Mitotic Arrest (≥5%)) | pIC50 | Along with Cell Death | Min. Effective conc. for Polyploidy (≥5%) | Mitotic Arrest (≥5%) | Proliferative arrest (>50%)
COc1cc(N)cc(Oc2ccnc3ccc(Br)cc23)c1 [Compound 91, 3-((6-bromoquinolin-4-yl)oxy)-5-methoxyaniline] | 0.001 to 1 µM | 0.001 to 1 µM |  |  |  |  | 
COc1cc2nccc(Oc3cc(-n4cccn4)cc(-n4cccn4)c3)c2cc1C(N)=O [Compound 4, 4-(3,5-di(1H-pyrazol-1-yl)phenoxy)-7-methoxyquinoline-6-carboxamide] | 0.001 to 1 µM | 0.001 to 1 µM |  |  |  |  | 
COc1cc(Oc2ccnc3ccccc23)cc(-c2nc(C)no2)c1 [Compound 13, 5-(3-methoxy-5-(quinolin-4-yloxy)phenyl)-3-methyl-oxadiazole] | 0.001 to 1 µM | 0.001 to 1 µM | 6.00 to 9.00 |  |  |  | 
COc1cc(Oc2ncnc3cc(OC)c(OC)cc23)cc(-n2cnc(C)c2)c1 [Compound 75, 4-(3-Methoxy-5(4-methyl-H-imidazol-1-yl)phenoxy)-6,7-dimethoxyquinazoline] | 0.001 to 1 µM | 0.001 to 1 µM | 6.00 to 9.00 |  |  |  | 
COC(=O)c1ccc2nccc(Oc3cc(OC)cc(-n4cccn4)c3)c2c1 [Compound 46, Methyl 4-(3-methoxy-5-(1H-pyrazol-1-yl)phenoxy)quinoline-6-carboxylate] | 0.001 to 1 µM | 0.001 to 1 µM | 6.00 to 9.00 |  |  |  | 
COc1cc(Oc2ccnc3cc(OC)c(C(N)=O)cc23)cc(-n2ccc(C)n2)c1 [Compound 85, 7-methoxy-4-(3-methoxy-5-(3-methyl-1H-pyrazol-1-yl)phenoxy)quinoline-6-carboxamide] | 0.001 to 1 µM | 0.001 to 1 µM |  |  |  |  | 
CNC(=O)c1cc(OC)cc(Oc2ccnc3cc(OC)c(Br)cc23)c1 [Compound 90, 3-((6-bromo-7-methoxyquinolin-4-yl)oxy)-5-methoxy-N-methylbenzamide] | 1 to 10 µM | 1 to 10 µM |  |  |  |  | 
COc1cc(NC(C)=O)cc(Oc2ccnc3ccc(C(=O)O)cc23)c1 [Compound 52, 4-(3-Acetamido-5-methoxyphenoxy) quinoline-6-carboxylic acid] | 10 to 30 µM | 1 to 10 µM | 4.52 to 5.00 |  |  |  | 
COc1cc(OC)cc(Oc2ccnc3cc(OC)c(Br)cc23)c1 [Compound 89, 6-bromo-4-(3,5-dimethoxyphenoxy)-7-methoxyquinone] | 0.001 to 1 µM | 0.001 to 1 µM |  |  |  |  | 
COc1cc(Oc2ccnc3cc(OC)c(C(N)=O)cc23)cc(-n2nc(C)cc2C)c1 [Compound 86, 4-(3-(3,5-dimethyl-1H-pyrazol-1-yl)-5-methoxyphenoxy)-7-methoxyquinoline-6-carboxamide] | 1 to 10 µM | 1 to 10 µM |  |  |  |  | 
COc1cc(NC(C)=O)cc(Oc2ccnc3ccc(I)cc23)c1 [Compound 60, N-(3-((6-iodoquinolin-4-yl)oxy)-5-methoxyphenyl) acetamide] | 0.001 to 1 µM | 0.001 to 1 µM | 6.00 to 9.00 |  |  |  | 
COc1cc(Oc2ccnc3cc(OC)c(Br)cc23)cc(-n2cccn2)c1 [Compound 88, 6-bromo-7-methoxy-4-(3-methoxy-5-(1H-pyrazol-1-yl)phenoxy)quinoline] | 0.001 to 1 µM | 0.001 to 1 µM |  |  |  |  | 
COc1cc(NC(C)=O)cc(Oc2ccnc3ccc(C(=O)N(C)C)cc23)c1 [Compound 58, 4-(3-acetamido-5-methoxyphenoxy)-N, N-dimethylquinoline-6-carboxamide] | 1 to 10 µM | 1 to 10 µM | 5.00 to 6.00 |  |  |  | 
COc1cc(Oc2ccnc3ccc(C(N)=O)cc23)cc(-n2cccn2)c1 [Compound 61, 4-(3-Methoxy-5-(1H-pyrazol-1-yl)phenoxy) quinolin-6-carbazamide] | 0.001 to 1 µM | 0.001 to 1 µM | 6.00 to 9.00 |  |  |  | 
COc1cc(Oc2ccnc3ccccc23)cc(C(=O)O)c1 [Compound 9, 3-methoxy-5-(quinolin-4-yloxy) benzoic add] | > 30 µM | > 30 µM | < 4.52 |  |  |  | 
COc1cc(Oc2ccnc3cc(OC)c(C(N)=O)cc23)cc(-c2nnc(C)o2)c1 [Compound 87, 7-methoxy-4-(3-methoxy-5-(5-methyl-1,3,4-oxadiazol-2-yl)phenoxy)quinoline-6-carboxamide] | 0.001 to 1 µM | 0.001 to 1 µM |  |  |  |  | 

Reference: patent publication US20240239806A1, “COMPOUNDS, COMPOSITIONS AND METHODS OF TREATING DISORDERS” (Chengdu Anticancer Bioscience, Ltd., priority 2021, published 2024)
